Measured values from patent US20080064667A1, “OXAZOLE DERIVATIVES OF TETRACYCLINES” (Wyeth, priority 2003, published 2008).
Converted amounts (≈) assume the structure as drawn.

Tests used:
Test in all cases: MIC, broth microdilution (NCCLS)
Format in all cases: cell-based
[1] = system: C. albicans GC3066 ATCC (Control); conditions: Candida albicans, Mueller-Hinton II broth, 18-22 hours at 35° C.
Description: (§1) Methods for in Vitro Antibacterial Evaluation
(§2) The Minimum Inhibitory Concentration (MIC)
(§3) Antimicrobial susceptibility testing. The in vitro activities of the antibiotics are determined by the broth microdilution method as recommended by the National Committee for Clinical Laboratory Standards (NCCLS) (1). Mueller-Hinton II broth (MHBII)(BBL Cockeysville, Md.) is the medium employed in the testing procedures. Microtiter plates containing serial dilutions of each antimicrobial agent are inoculated with each organism to yield the appropriate density (10^5 CFU/ml) in a 100 μl final volume. The plates are incubated for 18-22 hours at 35° C. in ambient air.
(§4) 1. NCCLS. 2000. Methods for Dilution Antimicrobial Susceptibility Tests for Bacteria That Grow Aerobically; Approved Standards: M7-A5, vol. 20. National Committe for Clinical Laboratory Standards, Wayne, Pa.

E. coli GC1073 (tet(B)) = conditions: Escherichia coli
Description: as §1, §2, §3, §4

[2] = system: E. coli GC2203 (ATCC Control); conditions: Escherichia coli, Mueller-Hinton II broth, 18-22 hours at 35° C.
Description: as §1, §2, §3, §4

E. coli GC2270 (tet(M)) = conditions: Escherichia coli
Description: as §1, §2, §3, §4

[3] = system: E. coli GC4559 (parent GC4560); conditions: Escherichia coli, Mueller-Hinton II broth, 18-22 hours at 35° C.
Description: as §1, §2, §3, §4

[4] = system: E. coli GC4560 (IMP mutant); conditions: Escherichia coli
Description: as §1, §2, §3, §4

[5] = system: E. faecalis GC2242 (Van-resistant); conditions: Enterococcus faecalis, Mueller-Hinton II broth, 18-22 hours at 35° C.
Description: as §1, §2, §3, §4

[6] = system: E. faecalis GC4555 (ATCC Control); conditions: Enterococcus faecalis, Mueller-Hinton II broth, 18-22 hours at 35° C.
Description: as §1, §2, §3, §4

[7] = system: H. influenzae<> GC6896 (ATCC Control); conditions: Haemophilus influenzae, Mueller-Hinton II broth, 18-22 hours at 35° C.
Description: as §1, §2, §3, §4

[8] = system: M. catarrhalis* GC6907 (Clinical); conditions: Moraxella catarrhalis, Mueller-Hinton II broth, 18-22 hours at 35° C.
Description: as §1, §2, §3, §4

[9] = system: S. aureus GC1079 (tet(K)); conditions: Staphylococcus aureus, Mueller-Hinton II broth, 18-22 hours at 35° C.
Description: as §1, §2, §3, §4

[10] = system: S. aureus GC1131 (Clinical); conditions: Staphylococcus aureus, Mueller-Hinton II broth, 18-22 hours at 35° C.
Description: as §1, §2, §3, §4

[11] = system: S. aureus GC2216 (ATCC Control); conditions: Staphylococcus aureus, Mueller-Hinton II broth, 18-22 hours at 35° C.
Description: as §1, §2, §3, §4

[12] = system: S. aureus GC4536 (Smith MP -In Vivo); conditions: Staphylococcus aureus, Mueller-Hinton II broth, 18-22 hours at 35° C.
Description: as §1, §2, §3, §4

[13] = system: S. aureus GC6466 (tet(M)); conditions: Staphylococcus aureus, Mueller-Hinton II broth, 18-22 hours at 35° C.
Description: as §1, §2, §3, §4

[14] = system: S. pneumoniae* GC1894 (Clinical); conditions: Streptococcus pneumoniae, Mueller-Hinton II broth, 18-22 hours at 35° C.
Description: as §1, §2, §3, §4

[15] = system: S. pneumoniae* GC4465 (Clinical); conditions: Streptococcus pneumoniae, Mueller-Hinton II broth, 18-22 hours at 35° C.
Description: as §1, §2, §3, §4

[16] = system: S. pyogenes* GC4563 (Clinical); conditions: Streptococcus pyogenes, Mueller-Hinton II broth, 18-22 hours at 35° C.
Description: as §1, §2, §3, §4

Row | Structure (SMILES) | MIC [1] [µg/mL] | MIC (E. coli GC1073 (tet(B))) [µg/mL] | MIC [2] [µg/mL] | MIC (E. coli GC2270 (tet(M))) [µg/mL] | MIC [3] [µg/mL] | MIC [4] [µg/mL] | MIC [5] [µg/mL] | MIC [6] [µg/mL] | MIC [7] [µg/mL] | MIC [8] [µg/mL] | MIC [9] [µg/mL] | MIC [10] [µg/mL] | MIC [11] [µg/mL] | MIC [12] [µg/mL] | MIC [13] [µg/mL] | MIC [14] [µg/mL] | MIC [15] [µg/mL] | MIC [16] [µg/mL]
1 | CN(C)c1cc2nc(C=C(c3ccccc3)c3ccccc3)oc2c2c1C[C@H]1C[C@H]3[C@H](N(C)C)C(O)=C(C(N)=O)C(=O)[C@@]3(O)C(O)=C1C2=O [Example 1, (6aR,7aS,8S,11aS)-5,8-bis(dimethylamino)-2-(2,2-diphenylvinyl)-9,11a,12-trihydroxy-11,13-dioxo-6,6a,7,7a,8,11,11a,13-octahydrotetraceno[2,1-d][1,3]oxazole-10-carboxamide] | > 64 | > 64 | > 64 | > 64 | > 64 | 32 (≈ 48.4 µM) | 16 (≈ 24.2 µM) | 32 (≈ 48.4 µM) | > 64 | > 64 | 16 (≈ 24.2 µM) | 16 (≈ 24.2 µM) | 16 (≈ 24.2 µM) | 16 (≈ 24.2 µM) | 32 (≈ 48.4 µM) | 8 (≈ 12.1 µM) | 16 (≈ 24.2 µM) | 8 (≈ 12.1 µM)
2 | CN(C)c1cc2nc(-c3ccc(C(C)(C)C)cc3)oc2c2c1C[C@H]1C[C@H]3[C@H](N(C)C)C(O)=C(C(N)=O)C(=O)[C@@]3(O)C(O)=C1C2=O [Example 31, (6aR,7aS,8S,11aS)-2-(4-tert-butylphenyl)-5,8-bis(dimethylamino)-9,11a,12-trihydroxy-11,13-dioxo-6,6a,7,7a,8,11,11a,13-octahydrotetraceno[2,1-d][1,3]oxazole-10-carboxamide] | > 64 | > 64 | > 64 | > 64 | > 64 | 4 (≈ 6.51 µM) | 8 (≈ 13 µM) | 8 (≈ 13 µM) | > 64 | 16 (≈ 26 µM) | 8 (≈ 13 µM) | 8 (≈ 13 µM) | 8 (≈ 13 µM) | 8 (≈ 13 µM) | 4 (≈ 6.51 µM) | 8 (≈ 13 µM) | 8 (≈ 13 µM) | 8 (≈ 13 µM)
3 | CN(C)c1cc2nc(-c3cc4ccccc4o3)oc2c2c1C[C@H]1C[C@H]3[C@H](N(C)C)C(O)=C(C(N)=O)C(=O)[C@@]3(O)C(O)=C1C2=O [Example 18, (6aR,7aS,8S,11aS)-2-(1-benzofuran-2-yl)-5,8-bis(dimethylamino)-9,11a,12-trihydroxy-11,13-dioxo-6,6a,7,7a,8,11,11a,13-octahydrotetraceno[2,1-d][1,3]oxazole-10-carboxamide] | > 64 | > 64 | > 64 | > 64 | > 64 | 4 (≈ 6.68 µM) | 4 (≈ 6.68 µM) | 4 (≈ 6.68 µM) | > 64 | 8 (≈ 13.4 µM) | 4 (≈ 6.68 µM) | 4 (≈ 6.68 µM) | 4 (≈ 6.68 µM) | 4 (≈ 6.68 µM) | 4 (≈ 6.68 µM) | 16 (≈ 26.7 µM) | 16 (≈ 26.7 µM) | 16 (≈ 26.7 µM)
4 | COc1ccccc1/C=C/c1nc2cc(N(C)C)c3c(c2o1)C(=O)C1=C(O)[C@]2(O)C(=O)C(C(N)=O)=C(O)[C@@H](N(C)C)[C@@H]2C[C@@H]1C3 [Example 28, (6aR,7aS,8S,11aS)-5,8-bis(dimethylamino)-9,11a,12-trihydroxy-2-[(E)-2-(2-methoxyphenyl)ethenyl]-11,13-dioxo-6,6a,7,7a,8,11,11a,13-octahydrotetraceno[2,1-d][1,3]oxazole-10-carboxamide] | > 64 | > 64 | > 64 | > 64 | > 64 | 16 (≈ 26 µM) | 8 (≈ 13 µM) | 16 (≈ 26 µM) | > 64 | 64 (≈ 104 µM) | 16 (≈ 26 µM) | 8 (≈ 13 µM) | 8 (≈ 13 µM) | 16 (≈ 26 µM) | 8 (≈ 13 µM) | 64 (≈ 104 µM) | 32 (≈ 52.1 µM) | 16 (≈ 26 µM)
5 | CN(C)c1cc2nc(-c3ccc(C#N)cc3)oc2c2c1C[C@H]1C[C@H]3[C@H](N(C)C)C(O)=C(C(N)=O)C(=O)[C@@]3(O)C(O)=C1C2=O [Example 7, (6aR,7aS,8S,11aS)-2-(4-cyanophenyl)-5,8-bis(dimethylamino)-9,11a,12-trihydroxy-11,13-dioxo-6,6a,7,7a,8,11,11a,13-octahydrotetraceno[2,1-d][1,3]oxazole-10-carboxamide] | > 64 | > 64 | > 64 | > 64 | > 64 | 8 (≈ 13.7 µM) | 8 (≈ 13.7 µM) | 8 (≈ 13.7 µM) | 64 (≈ 110 µM) | 4 (≈ 6.85 µM) | 8 (≈ 13.7 µM) | 8 (≈ 13.7 µM) | 8 (≈ 13.7 µM) | 8 (≈ 13.7 µM) | 8 (≈ 13.7 µM) | 16 (≈ 27.4 µM) | 8 (≈ 13.7 µM) | 8 (≈ 13.7 µM)
6 | COc1cc(OC)c(-c2nc3cc(N(C)C)c4c(c3o2)C(=O)C2=C(O)[C@]3(O)C(=O)C(C(N)=O)=C(O)[C@@H](N(C)C)[C@@H]3C[C@@H]2C4)c(OC)c1 [Example 15, (6aR,7aS,8S,11aS)-5,8-bis(dimethylamino)-9,11a,12-trihydroxy-11,13-dioxo-2-(2,4,6-trimethoxyphenyl)-6,6a,7,7a,8,11,11a,13-octahydrotetraceno[2,1-d][1,3]oxazole-10-carboxamide] | > 64 | > 64 | > 64 | > 64 | > 64 | 32 (≈ 49.3 µM) | 64 (≈ 98.7 µM) | 64 (≈ 98.7 µM) | > 64 | 64 (≈ 98.7 µM) | 64 (≈ 98.7 µM) | 64 (≈ 98.7 µM) | 64 (≈ 98.7 µM) | 64 (≈ 98.7 µM) | 64 (≈ 98.7 µM) | > 64 | > 64 | > 64
7 | COc1ccc(-c2nc3cc(N(C)C)c4c(c3o2)C(=O)C2=C(O)[C@]3(O)C(=O)C(C(N)=O)=C(O)[C@@H](N(C)C)[C@@H]3C[C@@H]2C4)cc1F [Example 13, (6aR,7aS,8S,11aS)-5,8-bis(dimethylamino)-2-(3-fluoro-4-methoxyphenyl)-9,11a,12-trihydroxy-11,13-dioxo-6,6a,7,7a,8,11,11a,13-octahydrotetraceno[2,1-d][1,3]oxazole-10-carboxamide] | > 64 | > 64 | > 64 | > 64 | > 64 | 4 (≈ 6.59 µM) | 8 (≈ 13.2 µM) | 8 (≈ 13.2 µM) | > 64 | 16 (≈ 26.4 µM) | 4 (≈ 6.59 µM) | 4 (≈ 6.59 µM) | 4 (≈ 6.59 µM) | 8 (≈ 13.2 µM) | 4 (≈ 6.59 µM) | 16 (≈ 26.4 µM) | 32 (≈ 52.8 µM) | 16 (≈ 26.4 µM)
8 | CN(C)c1ccc(-c2nc3ccc4cc5c(c(O)c4c3o2)C(=O)[C@]2(O)C(=O)C(C(N)=O)=C(O)[C@@H](N(C)C)[C@@H]2C5)cc1 [Example 3, (7aS,8S,11aS)-8-(dimethylamino)-2-[4-(dimethylamino)phenyl]-9,11a,13-trihydroxy-11,12-dioxo-7,7a,8,11,11a,12-hexahydronaphthaceno[2,1-d][1,3]oxazole-10-carboxamide] | > 64 | > 64 | > 64 | > 64 | > 64 | 16 (≈ 28.7 µM) | 2 (≈ 3.59 µM) | 2 (≈ 3.59 µM) |  |  | 1 (≈ 1.8 µM) | 2 (≈ 3.59 µM) | 2 (≈ 3.59 µM) | 2 (≈ 3.59 µM) | 2 (≈ 3.59 µM) |  | 2 (≈ 3.59 µM) | 8 (≈ 14.4 µM)
9 | CC(C)=Cc1nc2ccc3cc4c(c(O)c3c2o1)C(=O)[C@]1(O)C(=O)C(C(N)=O)=C(O)[C@@H](N(C)C)[C@@H]1C4 [Example 2, (7aS,8S,11aS)-8-(dimethylamino)-9,11a,13-trihydroxy-2-(2-methyl-1-propenyl)-11,12-dioxo-7,7a,8,11,11a,12-hexahydronaphthaceno[2,1-d][1,3]oxazole-10-carboxamide] | > 64 | > 64 | > 64 | > 64 | > 64 | 8 (≈ 16.3 µM) | 8 (≈ 16.3 µM) | 8 (≈ 16.3 µM) |  |  | 8 (≈ 16.3 µM) | 8 (≈ 16.3 µM) | 8 (≈ 16.3 µM) | 8 (≈ 16.3 µM) | 8 (≈ 16.3 µM) |  | 8 (≈ 16.3 µM) | 8 (≈ 16.3 µM)
